# Source: patent US20250064775A1, “SELECTIVE ELIMINATION OF SENESCENT CELLS BY FERROPTOSIS INDUCTION” (Trustees of Tufts College, priority 2022, published 2025)
# Legend:
# [1] = tested on: PTGES, ALOX5, LTC4S, LTA4H and ALOX5AP mRNA in liver; assay: Liver oxylipin synthase mRNAs by qPCR in chemotherapy-induced senescence model; type: in vivo, p16-3MR mice; settings: FIG. 3B
# Experimental: A. IMR-90 cells were proliferative in 10% serum, made quiescent by incubation for 3 days in 0.2% serum, or made senescent by treatment with 10 Gy X-rays (IR) or ethidium bromide to induce mitochondrial-dysfunction induced senescence (MiDAS). Lipids were extracted from proliferating (PRO—10%), quiescent (QUI—0.2%), IR-induced senescent (SEN(IR)—10% or 0.2% serum), or mitochondrial dysfunction-associated senescent (MiDAS-0.2%) cells and analyzed by liquid chromatography combined with mass spectrometry (LC-MS). Putative oxylipins (A) were detected in control and senescent cells. B. p16-3MR mice were given a single dose (10 mg/kg) of doxorubicin (DOXO) or phosphate-buffered saline (PBS) by intraperitoneal (i.p.) injection. After 5 days, mice were given GCV (25 mg/kg) or vehicle by i.p. injection for 5 consecutive days. Livers were harvested on day 10 and analyzed for oxylipin synthase mRNAs by qPCR. Heat maps indicate averages of at least 5 mice (*=p<0.05, 1-way ANOVA). C. C57BL/6 mice were aged for 6 (young) or 24 (old) months. Kidneys were harvested from mice and analyzed for oxylipin synthase RNA levels by qPCR.
# Briefly, mice were treated with either control (phosphate buffered saline, (PBS)), doxorubicin (DOXO), or the combination of DOXO and ganciclovir (GCV). GCV is known to eliminate senescent cells in the liver at the concentrations administered, i.e., 25 mg/kg.
# senescent cells = assay: Ferroptosis induction in senescent relative to non-senescent cells (general statement); type: cell-based; settings: general statement in description
# From the text: While many of these oxylipins can drive pathology, such as in the case of pulmonary fibrosis, this may also result in a vulnerability that allows them to be targeted for elimination. Among the oxylipin synthesis enzymes elevated during senescence are arachidonate 5-, 12-, 15-, and 15B-lipoxygenases (ALOX5, 12, 15, and 15B), as well as ALOX5 activating protein (ALOX5AP). These lipoxygenases produce oxylipins, such as the leukotrienes, by acting on free arachidonic acid inside of the cell. However, these enzymes may also peroxidize arachidonic acid that is bound (esterified) in the plasma membrane. Lipid peroxides then react with labile iron in the cytosol via Fenton reaction to result in an exponential chain reaction of lipid peroxidation, ultimately resulting in a form of cell death known as “ferroptosis”. […] Other compounds, such as artemisinin and its derivatives interact with labile iron to increase lipid peroxidation. Since senescent cells also show elevated levels of labile iron, in addition to lipoxygenases, these cells are especially sensitive to induction of ferroptosis. […] As used herein, “senolytic” refers to the property of a molecule, compound, or composition to selectively kill senescent cells. Thus, ML-210, RSL3, FIN56, erastin, artemisinin, and related molecules are useful for the treatment of chronic degenerative diseases that are characterized by cellular senescence.
# [2] = tested on: senescent cells induced with 10 Gy of IR; assay: Cell survival (CCK8) of IR-induced senescent cells vs non-senescent controls; type: cell-based
# Experimental: (§1) A. RNA levels of GPX4 in cells induced to senesce by ionizing radiation (IR), mitochondrial dysfunction (MiDAS), or lentiviral overexpression of […] [SEN(RAS)]. Non-senescent cells induced by either mock treatment (NS) or empty lentiviral vector (Vector) served as controls. RNA levels measure by quantitative RT-PCR and normalized to actin. B—C. Cells were induced to senesce by 24 h of treatment with 250 nM doxorubicin [SEN(DOXO)] or control [NS (DMSO)], and 10 days later were given the indicated drug doses for 24 h. D. Cells were induced to senesce with 10 Gy of IR and 10 days later given the indicated drug doses for 24 h. E-F. Cells were induced to senesce with 10 Gy of IR and 10 days later given the indicated drug doses for 72 h. Cell survival was then measured by colorimetric assay (CCK8). *=p<0.01
# Preliminary data: Senescent cells appear primed to undergo ferroptosis. Not only do they elevate ALOX enzymes (FIG. 1A) and PUFA levels (FIG. 1B), but the lipid hydroxide products of these enzymes are elevated (FIG. 1C), as are byproducts of lipid peroxidation, (e.g. 4-HNE and 4-HDDE (FIG. 1D)). Lipid peroxidation-sensitive probes, e.g., C11-BODIPY, indicate increased lipid peroxidation during senescence. Furthermore, senescent cells accumulate iron in their cytosol. […]
# [3] = tested on: IR-induced senescent [SEN(IR)] cells; assay: Rescue of RSL3-induced ferroptosis in IR-induced senescent cells (CCK8 survival); type: cell-based
# Experimental: Non-senescent (NS: mock irradiated) or IR-induced senescent [SEN(IR)] cells were treated 10 days after irradiation with […] RSL3 and the indicated ferroptosis antagonist, followed by cell survival measurement by CCK8 assay. A. Cells were treated with ferrostatin-1 (FSN1—1 μM) at the same time as RSL3. B. Cells were given the ALOX5 and ALOX15 inhibitor zileuton (Zil—50 μM) at the same time as RSL3. C. Cells were given iron chelators deferoxamine (DFX—25 μM) or salicylaldehyde isonicotinoyl hydrazine (SIH—100 μM) at the same time as RSL3. D. Cells were given ACSL4 inhibitors rosiglitazone (ROSI—100 μM) or PRGL493 (PRGL—100 μM) for 72 h prior to RSL3. ***=p<0.001
# The inventor next sought to further elucidate the potential mechanisms for induction of ferroptosis in senescent cells by the disclosed senolytic drugs. The inventor rescued ferroptosis in senescent cells induced by contacting the cells with RSL3 and ferrostatin-1 (FSN1), which inhibits lipid peroxidation (FIG. 6A), zileuton (5- and 15-lipoxygenase inhibitor), which protects cells from lipoxygenase-induced membrane peroxidation (FIG. 6B), iron chelators deferoxamine or salicylaldehyde isonicotinoyl hydrazine (FIG. 6C), and ACSL4 inhibitors rosiglitazone or PRGL493 (FIG. 6D).
# [4] = tested on: senescent cells [SEN(DOXO)]; assay: Cell survival (CCK8) of doxorubicin-induced senescent cells vs non-senescent controls; type: cell-based; settings: SEN(DOXO) (250 nM doxorubicin 24 h) vs NS (DMSO); drug given 10 days later for 24 h; FIG. 5B-C
# Experimental: as §1, with “*=p<0.01 Preliminary data: Senescent cells appear primed to undergo ferroptosis. Not only do they elevate ALOX enzymes (FIG. 1A) and PUFA levels (FIG. 1B), but the lipid hydroxide products of these enzymes are elevated (FIG. 1C), as are byproducts of lipid peroxidation, (e.g. 4-HNE and 4-HDDE (FIG. 1D)). Lipid peroxidation-sensitive probes, e.g., C11-BODIPY, indicate increased lipid peroxidation during senescence. Furthermore, senescent cells accumulate iron in their cytosol. […]” for “*=p<0.01”
# [5] = given at the same time as 0.1 mM RSL3, FSN1 1 μM, Zil 50 μM, DFX 25 μM, SIH 100 μM, FIG. 6A-C
Molecule,selective induction of ferroptosis in senescent cells relative to non-senescent cells (senescent cells),"rescue of RSL3-induced ferroptosis in senescent cells (cell survival, CCK8) [3, 5]",also measured
"COc1cccc2c1C(=O)c1c(O)c3c(c(O)c1C2=O)C[C@@](O)(C(=O)CO)C[C@@H]3O[C@H]1C[C@H](N)[C@H](O)[C@H](C)O1 [DOXO, doxorubicin]",–,–,"liver mRNA levels of PTGES, ALOX5, LTC4S, LTA4H and ALOX5AP ([1]; single dose 10 mg/kg i.p. vs PBS, livers harvested day 10): DOXO-dependent increase in the mRNA levels"
O=S(=O)(NC1CCCCC1)c1ccc2c(c1)C(=NO)c1cc(S(=O)(=O)NC3CCCCC3)ccc1-2 [FIN56],selectively induces ferroptosis in senescent cells relative to non-senescent cells,–,–
"Nc1nc(O)c2ncn(COC(CO)CO)c2n1 [GCV, ganciclovir]",–,–,"effect on DOXO-dependent increase of liver mRNA levels of PTGES, ALOX5, LTC4S, LTA4H and ALOX5AP ([1]; 25 mg/kg i.p. for 5 consecutive days, 5 days after DOXO): abrogates the DOXO-dependent increase in the mRNA levels"
Cc1onc(C(=O)N2CCN(C(c3ccc(Cl)cc3)c3ccc(Cl)cc3)CC2)c1[N+](=O)[O-] [ML-210],selectively induces ferroptosis in senescent cells relative to non-senescent cells,–,"selective induction of ferroptosis in senescent cells (cell survival, CCK8) ([2]; 10 Gy IR senescent vs non-senescent (NS) cells, drug given 10 days later for 24 h, FIG. 5D): selectively induced ferroptosis in senescent cells and not control non-senescent (NS) cells"
CC(=O)NC1=NC(c2cn(-c3ccccc3)nc2-c2ccc(C)o2)n2c(nc3ccccc32)N1 (stereo not drawn) [PRGL493],–,–,"rescue of RSL3-induced ferroptosis in senescent cells (cell survival, CCK8) ([3]; given for 72 h prior to 0.1 mM RSL3, ROSI 100 μM, PRGL 100 μM, FIG. 6D): rescued induction of ferroptosis in senescent cells"
COC(=O)c1ccc([C@H]2c3[nH]c4ccccc4c3CC(C(=O)OC)N2C(=O)CCl)cc1 (stereo partly drawn) [RSL3],selectively induces ferroptosis in senescent cells relative to non-senescent cells,–,"selective killing of senescent cells (cell survival, CCK8) [4]: selectively killed senescent cells"
C[C@@H]1CC[C@H]2[C@@H](C)C(=O)O[C@@H]3O[C@@]4(C)CC[C@@H]1[C@]32OO4 [artemisinin],–,–,"cell death in senescent cells vs control cells (cell survival, CCK8) ([2]; 10 Gy IR, drug given 10 days later for 72 h, several concentrations, FIG. 5E-5F): induced significantly more cell death in senescent cells than control cells"
CCOC(=O)c1ccc(NC2CCCCC2)c(N)c1 [ferrostatin-1],–,rescued induction of ferroptosis in senescent cells,–
CC(c1cc2ccccc2s1)N(O)C(N)=O (stereo not drawn) [zileuton],–,rescued induction of ferroptosis in senescent cells,–
salicylaldehyde isonicotinoyl hydrazine,–,rescued induction of ferroptosis in senescent cells,–
